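1) Cells in 96-well plates. 2) Compound, 48 h, 5 concentrations. 3) Linear interpolation between surrounding doses. 4) Unreached endpoint = highest concentration. Abbreviation: GI50, concentration required for 50% inhibition of growth. At the TGI there is no net growth.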
Columns and labels:
Assay in all cases: inhibition of tumour cell growth, NCI panel, 48 h
A498 renal = test system: A498 renal
HOP-92 NSCLC = test system: HOP-92 NSCLC
NCI-H460 lung = test system: NCI-H460 lung
RXF 393 renal = test system: RXF 393 renal
NCI/ADR-RES ovarian = test system: NCI/ADR-RES ovarian
SR leukemia = test system: SR leukemia
CCRF-CEM leukemia = test system: CCRF-CEM leukemia
IGROV1 ovarian = test system: IGROV1 ovarian
HT29 colon = test system: HT29 colon
MCF7 breast = test system: MCF7 breast
A549 NSCLC = test system: A549 NSCLC
MDA-MB-435 = test system: MDA-MB-435
MDA-MB-468 breast = test system: MDA-MB-468 breast
UACC-257 melanoma = test system: UACC-257 melanoma
OVCAR-5 ovarian = test system: OVCAR-5 ovarian
HOP-62 NSCLC = test system: HOP-62 NSCLC
SF-268 CNS = test system: SF-268 CNS
HS 578T breast = test system: HS 578T breast
OVCAR-3 ovarian = test system: OVCAR-3 ovarian
UACC-62 melanoma = test system: UACC-62 melanoma
BT-549 breast = test system: BT-549 breast
SK-OV-3 ovarian = test system: SK-OV-3 ovarian
KM12 colon = test system: KM12 colon
HL-60(TB) leukemia = test system: HL-60(TB) leukemia
M14 melanoma = test system: M14 melanoma
NCI-H23 lung = test system: NCI-H23 lung
NCI-H226 lung = test system: NCI-H226 lung
DU-145 prostate = test system: DU-145 prostate
HCT-116 colon = test system: HCT-116 colon
SN12C renal = test system: SN12C renal
RPMI-8226 leukemia = test system: RPMI-8226 leukemia
OVCAR-8 ovarian = test system: OVCAR-8 ovarian
U251 CNS = test system: U251 CNS
SF-539 CNS = test system: SF-539 CNS
SF-295 CNS = test system: SF-295 CNS
HCT-15 colon = test system: HCT-15 colon
PC-3 prostate = test system: PC-3 prostate
OVCAR-4 ovarian = test system: OVCAR-4 ovarian
SW-620 colon = test system: SW-620 colon
LOX IMVI melanoma = test system: LOX IMVI melanoma
ACHN renal = test system: ACHN renal
MOLT-4 leukemia = test system: MOLT-4 leukemia
SK-MEL-28 melanoma = test system: SK-MEL-28 melanoma
NCI-H522 lung = test system: NCI-H522 lung
786-0 renal = test system: 786-0 renal
HCC-2998 colon = test system: HCC-2998 colon
K-562 leukemia = test system: K-562 leukemia
T-47D breast = test system: T-47D breast
SNB-19 CNS = test system: SNB-19 CNS
CAKI-1 renal = test system: CAKI-1 renal
TK-10 renal = test system: TK-10 renal
EKVX NSCLC = test system: EKVX NSCLC
COLO 205 colon = test system: COLO 205 colon
SK-MEL-5 melanoma = test system: SK-MEL-5 melanoma
MALME-3M melanoma = test system: MALME-3M melanoma

c1n[nH]cc1-c1nc2ccc3[nH]ncc3c2c2c1CC1(CCOCC1)CC2
GI50 (A498 renal): 6.66 µM
TGI (A498 renal): 22.4 µM
GI50 (HOP-92 NSCLC): 13.4 µM
TGI (HOP-92 NSCLC): 64.1 µM
GI50 (NCI-H460 lung): 10.1 µM
TGI (NCI-H460 lung): 26.4 µM
GI50 (RXF 393 renal): 3.55 µM
TGI (RXF 393 renal): 16.1 µM
GI50 (NCI/ADR-RES ovarian): 58.3 µM
TGI (NCI/ADR-RES ovarian): > 100 µM
GI50 (SR leukemia): 3.33 µM
TGI (SR leukemia): 15.2 µM
GI50 (CCRF-CEM leukemia): 22.1 µM
TGI (CCRF-CEM leukemia): 80.9 µM
GI50 (IGROV1 ovarian): 19.8 µM
TGI (IGROV1 ovarian): 69.6 µM
GI50 (HT29 colon): 12.5 µM
TGI (HT29 colon): > 100 µM
GI50 (MCF7 breast): 13 µM
TGI (MCF7 breast): 40.9 µM
GI50 (A549 NSCLC): 22.8 µM
TGI (A549 NSCLC): > 100 µM
GI50 (MDA-MB-435): 11.6 µM
TGI (MDA-MB-435): 25.4 µM
GI50 (MDA-MB-468 breast): 10.7 µM
TGI (MDA-MB-468 breast): 23.2 µM
GI50 (UACC-257 melanoma): 14.7 µM
TGI (UACC-257 melanoma): 36.5 µM
GI50 (OVCAR-5 ovarian): 27.7 µM
TGI (OVCAR-5 ovarian): 92.3 µM
GI50 (HOP-62 NSCLC): 15.4 µM
TGI (HOP-62 NSCLC): 43.3 µM
GI50 (SF-268 CNS): 16.6 µM
TGI (SF-268 CNS): 41.2 µM
GI50 (HS 578T breast): 7.74 µM
TGI (HS 578T breast): 37.5 µM
GI50 (OVCAR-3 ovarian): 16.8 µM
TGI (OVCAR-3 ovarian): 65.3 µM
GI50 (UACC-62 melanoma): 4.37 µM
TGI (UACC-62 melanoma): 15.8 µM
GI50 (BT-549 breast): 5.05 µM
TGI (BT-549 breast): 18.9 µM
GI50 (SK-OV-3 ovarian): 4.09 µM
TGI (SK-OV-3 ovarian): 60.2 µM
GI50 (KM12 colon): 19.2 µM
TGI (KM12 colon): 47.8 µM
GI50 (HL-60(TB) leukemia): 8.38 µM
TGI (HL-60(TB) leukemia): 28.5 µM
GI50 (M14 melanoma): 6.24 µM
TGI (M14 melanoma): 20.9 µM
GI50 (NCI-H23 lung): 13.8 µM
TGI (NCI-H23 lung): 28.8 µM
GI50 (NCI-H226 lung): 13.9 µM
TGI (NCI-H226 lung): 39.2 µM
GI50 (DU-145 prostate): 17.9 µM
TGI (DU-145 prostate): > 100 µM
GI50 (HCT-116 colon): 4.62 µM
TGI (HCT-116 colon): > 100 µM
GI50 (SN12C renal): 13.3 µM
TGI (SN12C renal): 44.3 µM
GI50 (RPMI-8226 leukemia): 11.1 µM
TGI (RPMI-8226 leukemia): 42.7 µM
GI50 (OVCAR-8 ovarian): 13.3 µM
TGI (OVCAR-8 ovarian): 32.6 µM
GI50 (U251 CNS): 11.4 µM
TGI (U251 CNS): > 100 µM
GI50 (SF-539 CNS): 13.5 µM
TGI (SF-539 CNS): 27.3 µM
GI50 (SF-295 CNS): 24.9 µM
TGI (SF-295 CNS): 71.1 µM
GI50 (HCT-15 colon): 19.8 µM
TGI (HCT-15 colon): > 100 µM
GI50 (PC-3 prostate): 16.7 µM
TGI (PC-3 prostate): > 100 µM
GI50 (OVCAR-4 ovarian): 23.4 µM
TGI (OVCAR-4 ovarian): 89.2 µM
GI50 (SW-620 colon): 5.05 µM
TGI (SW-620 colon): > 100 µM
GI50 (LOX IMVI melanoma): 8.51 µM
TGI (LOX IMVI melanoma): 21.5 µM
GI50 (ACHN renal): 7.72 µM
TGI (ACHN renal): > 100 µM
GI50 (MOLT-4 leukemia): 13.4 µM
TGI (MOLT-4 leukemia): 42.7 µM
GI50 (SK-MEL-28 melanoma): 12.1 µM
TGI (SK-MEL-28 melanoma): 25.6 µM
GI50 (NCI-H522 lung): 4.84 µM
TGI (NCI-H522 lung): 21.2 µM
GI50 (786-0 renal): 14.9 µM
TGI (786-0 renal): 43.1 µM
GI50 (HCC-2998 colon): 12.1 µM
TGI (HCC-2998 colon): 32 µM
GI50 (K-562 leukemia): 16.9 µM
TGI (K-562 leukemia): > 100 µM
GI50 (T-47D breast): 13 µM
TGI (T-47D breast): 55.8 µM
GI50 (SNB-19 CNS): 19.3 µM
TGI (SNB-19 CNS): 71.2 µM
GI50 (CAKI-1 renal): 17.3 µM
TGI (CAKI-1 renal): 38.5 µM
GI50 (TK-10 renal): 8.2 µM
TGI (TK-10 renal): > 100 µM
GI50 (EKVX NSCLC): 19.2 µM
TGI (EKVX NSCLC): 54.4 µM
GI50 (COLO 205 colon): 5.62 µM
TGI (COLO 205 colon): 22.2 µM
GI50 (SK-MEL-5 melanoma): 14.8 µM
TGI (SK-MEL-5 melanoma): 28.7 µM
GI50 (MALME-3M melanoma): 14.1 µM
TGI (MALME-3M melanoma): 27.9 µM
